Laboratory results reported in US20070178152A1, “Carboxyalkylcellulose esters for administration of poorly soluble pharmaceutically active agents” (priority 2005, published 2007).
Several values for one entry are separate records, joined by “and”; a condition that tells them apart may be missing. Equal entries are not always repeated. Blank lines part the entries; values can stand above or below the molecule they belong to.

Columns and labels:
[1] = Dissolution of glyburide and glyburide solid dispersions in SIFsp, pH 6.8; format: physicochemical; design: drug released per capsule, Table 18C (quantity not headed): unit not given here; settings: for % Drug Released / Total Drug Released / Normalized Drug Released / drug released per capsule, Table 18C (quantity not headed): gelatin capsule
Method: (§1) All dissolution studies were performed on a Varian VK7025 Dissolution Apparatus equipped with a Varian VK8000 Fraction Collector
(§2) HPLC Methods for Evaluating Dissolution Aliquots:
(§3) Determination of Weight % Phenytoin, Carbamazepine, Glyburide, or Griseofulvin.
(§4) Mobile Phase: 55% acetonitrile/45% ammonium acetate buffer (2.6 g NH4OAc/L H2O with pH adjusted to pH˜5.25 with glacial acetic acid)
(§5) Column: Agilent Eclipse XDB-C8, 4.6 mm×150 mm×5 μm
(§6) Detection: UV 254 nm (UV 214 nm can also be used for phenytoin or carbamazepine, UV 291 nm can also be used for griseofulvin); typically five signals were selected from UV 214 nm, 222 nm, 254 nm, 287 nm, 291 nm, and/or 325 nm were collected for each sample.
Preparation of Glyburide Standard Curves
Glyburide reference standard from USP was dried as directed (106° C. for six hours), then approximately 20-25 mg of glyburide are added to a 25-mL volumetric flask and dissolved in DMSO or 55% acetonitrile/45% ammonium acetate, pH 5.25. The volume was diluted to 25 mL. A set of standard dilutions were prepared either using 10-mL volumetric flasks or Rainin automatic pipetmen.
(§7) Simulated Intestinal Fluid, without pancreatin, pH 6.8 (SIFsp, pH 6.8)—Added monobasic potassium phosphate (KH2PO4, 34 g) to a 4000-mL beaker. Added deionized/polished water (2000 mL) and mixed using a magnetic stir bar until the KH2PO4 is completely dissolved. Added 0.2 N sodium hydroxide (NaOH, 590 mL) and stirred. The pH was adjusted to pH 6.8±0.1 using 0.2 N NaOH. The sample was diluted with deionized/polished water to a final volume of 5000 mL.
(§8) The SIFsp media was heated to ˜45° C. in four 2000-mL Kimax bottles in an oven. The sample was degassed according to USP protocol by filtering through a 0.45 μm membrane filter (Pall, Supor-450, 0.45 μm, 90 mm, part # 60200, Lot # 43214) and stirring under vacuum for 5 minutes.
(§9) Dissolution Conditions #1.
(§10) Dissolution Conditions #2.
These Examples describe the dissolution of glyburide and glyburide solid Dispersions by evaluating the samples described in Examples 109-117. SlFsp, pH 6.8 media preperation was described in the Materials and Methods section.
Samples were transferred into gelatin capsules (Capsugel, size OCS, Lot #624282) using a manual single capsule filler. The weight of each capsule and the amount of sample added are found in Table 18 (Capsule Description).
These Examples describe the dissolution of glyburide and glyburide solid dispersions by evaluating the samples described in Examples 119-124. SIFsp, pH 6.8 media preperation was described in the Materials and Methods section.
Samples were transferred into gelatin capsules (Capsugel, size OCS, Lot # 624282) using a manual single capsule filler. The weight of each capsule and the amount of sample added are found in Tables 19 and 20 (Capsule Description).

[2] = Dissolution of griseofulvin and griseofulvin solid dispersions (with or without surfactant) in SIFsp, pH 6.8; format: physicochemical; settings: for % Drug Released / Total Drug Released: SIFsp pH 6.8, gelatin capsule, single vessel; for Average % Released: SIFsp, pH 6.8, average of runs
Method: as §1, §2, §3, §4, §5, §6, §7, §8, §9, §10
These Examples describe the dissolution of griseofulvin and griseofulvin solid dispersions by evaluating the samples described in Examples 125-134. SlFsp, pH 6.8 media preparation was described in the Materials and Methods section.
Samples were transferred into gelatin capsules (Capsugel, size 0CS, Lot # 624282) using a manual single capsule filler. The weight of each capsule and the amount of sample added are found in Table 21 and 22 (Capsule Description).
These Examples describe the impact of surfactant additives on the dissolution profiles of griseofulvin/CMCAB solid dispersions. Preparations of the griseofulvin/CMCAB, griseofulvin/CMCAB/Tween 80, and griseofulvin/CMCAB/SDS solid dispersions evaluated in this example are described in Examples 135-138. SIFsp, pH 6.8 media preparation was described in the Materials and Methods section.
Samples were transferred into gelatin capsules (Capsugel, size 00CS, Lot # 637785) using a manual single capsule filler. The weight of each capsule and the amount of sample added are found in Table 23 (Capsule Description).

Average % Released ([1]; 10 min, average of capsules): 0.1549% | Average % Released ([1]; 10 min, average of vessels): 0.0373% | % Drug Released ([1]; 10 min, single vessel): 0.0362% and 0.0355% and 0.0403% | Total Drug Released ([1]; 15 min, single vessel): 0.0321 mg | Average % Released ([1]; 20 min, average of capsules): 1.0081% | Average % Released ([1]; 20 min, average of vessels): 0.2490% | Normalized Drug Released ([1]; 20 min): 0.7201 mg and 0.7299 mg | drug released per capsule, Table 18C (quantity not headed) ([1]; 20 min): 1.0149 and 1.0013 | % Drug Released ([1]; 20 min, single vessel): 0.0355% and 0.2912% and 0.4202% | Average % Released ([1]; 30 min, average of capsules): 1.2315% | Average % Released ([1]; 30 min, average of vessels): 0.4372% | Normalized Drug Released ([1]; 30 min): 0.8728 mg and 0.8986 mg | drug released per capsule, Table 18C (quantity not headed) ([1]; 30 min): 1.2495 and 1.2136 | % Drug Released ([1]; 30 min, single vessel): 0.4237% and 0.4293% and 0.4587% | Total Drug Released ([1]; 45 min, single vessel): 0.3834 mg and 0.3424 mg and 0.4071 mg | Average % Released ([1]; 60 min, average of capsules): 1.7763% | Average % Released ([1]; 60 min, average of vessels): 0.5522% | Normalized Drug Released ([1]; 60 min): 1.2890 mg and 1.2660 mg | drug released per capsule, Table 18C (quantity not headed) ([1]; 60 min): 1.7923 and 1.7603 | % Drug Released ([1]; 60 min, single vessel): 0.4365% and 0.5720% and 0.6480% | Total Drug Released ([1]; 60 min, single vessel): 0.3950 mg and 0.4562 mg and 0.5752 mg | Total Drug Released ([1]; 90 min, single vessel): 0.6124 mg and 0.6166 mg and 0.7677 mg | Average % Released ([1]; 120 min, average of capsules): 2.1001% | Average % Released ([1]; 120 min, average of vessels): 0.7716% | Normalized Drug Released ([1]; 120 min): 1.5740 mg and 1.4468 mg | drug released per capsule, Table 18C (quantity not headed) ([1]; 120 min): 2.1886 and 2.0117 | % Drug Released ([1]; 120 min, single vessel): 0.6767% and 0.7732% and 0.8649% | Total Drug Released ([1]; 120 min, single vessel): 0.7134 mg and 0.7222 mg and 0.8356 mg | Total Drug Released ([1]; 150 min, single vessel): 0.8270 mg and 0.8369 mg and 0.9711 mg | Average % Released ([1]; 180 min, average of capsules): 2.2533% | Average % Released ([1]; 180 min, average of vessels): 0.8784% | Normalized Drug Released ([1]; 180 min): 1.6724 mg and 1.5688 mg | drug released per capsule, Table 18C (quantity not headed) ([1]; 180 min): 2.3253 and 2.1813 | % Drug Released ([1]; 180 min, single vessel): 0.7882% and 0.9056% and 0.9414% | Total Drug Released ([1]; 180 min, single vessel): 0.8919 mg and 0.9402 mg and 0.9572 mg | Total Drug Released ([1]; 210 min, single vessel): 0.9428 mg and 0.9956 mg and 1.4143 mg | Average % Released ([1]; 240 min, average of capsules): 2.3376% | Average % Released ([1]; 240 min, average of vessels): 1.0191% | Normalized Drug Released ([1]; 240 min): 1.7153 mg and 1.6471 mg | Total Drug Released ([1]; 240 min): 0.1934 mg and 0.1252 mg | drug released per capsule, Table 18C (quantity not headed) ([1]; 240 min): 2.3850 and 2.2902 | % Drug Released ([1]; 240 min, single vessel): 0.9138% and 1.0495% and 1.0941% | Total Drug Released ([1]; 240 min, single vessel): 1.0358 mg and 1.0726 mg and 1.2243 mg | Average % Released ([1]; 300 min, average of capsules): 2.4335% | Average % Released ([1]; 300 min, average of vessels): 1.0810% | Normalized Drug Released ([1]; 300 min): 1.7802 mg and 1.7202 mg | Total Drug Released ([1]; 300 min): 0.2583 mg and 0.1982 mg | drug released per capsule, Table 18C (quantity not headed) ([1]; 300 min): 2.4752 and 2.3918 | % Drug Released ([1]; 300 min, single vessel): 0.9855% and 1.1790% and 1.0784% | Average % Released ([1]; 360 min, average of capsules): 2.5067% | Average % Released ([1]; 360 min, average of vessels): 1.2945% | Normalized Drug Released ([1]; 360 min): 1.8465 mg and 1.7592 mg | Total Drug Released ([1]; 360 min): 0.3246 mg and 0.2373 mg | drug released per capsule, Table 18C (quantity not headed) ([1]; 360 min): 2.5674 and 2.4461 | % Drug Released ([1]; 360 min, single vessel): 1.0417% and 1.2484% and 1.5934% | Average % Released ([1]; 450 min, average of capsules): 2.5617% | Average % Released ([1]; 450 min, average of vessels): 1.2896% | Normalized Drug Released ([1]; 450 min): 1.8424 mg | Total Drug Released ([1]; 450 min): 0.3205 mg | drug released per capsule, Table 18C (quantity not headed) ([1]; 450 min): 2.5617 | % Drug Released ([1]; 450 min, single vessel): 1.1444% and 1.3449% and 1.3793%
Compound: COc1ccc(Cl)cc1C(=O)NCCc1ccc(S(=O)(=O)NC(=O)NC2CCCCC2)cc1 [Glyburide]

griseofulvin release profile ([2]; SIFsp pH 6.8, FIGS. 7-14, in words): rapid release | Average % Released ([2]; 15 min): 39.3874% | Average % Released ([2]; 30 min): 40.0500% | Average % Released ([2]; 45 min): 39.9934% | Average % Released ([2]; 60 min): 40.2064% | Average % Released ([2]; 90 min): 40.8136% | Average % Released ([2]; 120 min): 40.8282% | Average % Released ([2]; 150 min): 39.9849% | Average % Released ([2]; 180 min): 39.5350% | Average % Released ([2]; 210 min): 39.8114% | Average % Released ([2]; 240 min): 39.8038%
Compound: COC1=CC(=O)C[C@@H](C)[C@]12Oc1c(Cl)c(OC)cc(OC)c1C2=O [griseofulvin, Griseofulvin]
% Drug Released ([2]; 15 min): 39.8059% and 45.3135% and 36.6133% and 35.8167% | Total Drug Released ([2]; 15 min): 13.1651 mg and 12.7375 mg and 12.9809 mg and 12.9579 mg | % Drug Released ([2]; 30 min): 37.0470% and 36.5664% and 39.6132% and 46.9736% | Total Drug Released ([2]; 30 min): 13.1347 mg and 13.2291 mg and 13.1014 mg and 13.0986 mg | % Drug Released ([2]; 45 min): 36.6587% and 36.6412% and 39.5262% and 47.1475% | Total Drug Released ([2]; 45 min): 12.9970 mg and 13.2561 mg and 13.0726 mg and 13.1471 mg | % Drug Released ([2]; 60 min): 37.2839% and 36.7251% and 40.3033% and 46.5134% | Total Drug Released ([2]; 60 min): 13.2187 mg and 13.2865 mg and 13.3296 mg and 12.9703 mg | % Drug Released ([2]; 90 min): 36.3266% and 35.9752% and 39.8005% and 51.1520% | Total Drug Released ([2]; 90 min): 12.8793 mg and 13.0152 mg and 13.1633 mg and 14.2638 mg | % Drug Released ([2]; 120 min): 38.9498% and 36.7450% and 40.2775% and 47.3403% | Total Drug Released ([2]; 120 min): 13.8093 mg and 13.2937 mg and 13.3211 mg and 13.2009 mg | % Drug Released ([2]; 150 min): 36.6774% and 35.8335% and 39.6316% and 47.7972% | Total Drug Released ([2]; 150 min): 13.0036 mg and 12.9639 mg and 13.1075 mg and 13.3283 mg | % Drug Released ([2]; 180 min): 36.6068% and 35.6474% and 39.0996% and 46.7861% | Total Drug Released ([2]; 180 min): 12.9786 mg and 12.8966 mg and 12.9315 mg and 13.0464 mg | % Drug Released ([2]; 210 min): 37.1385% and 35.7882% and 39.5796% and 46.7393% | Total Drug Released ([2]; 210 min): 13.1671 mg and 12.9476 mg and 13.0903 mg and 13.0333 mg | % Drug Released ([2]; 240 min): 36.7973% and 36.6212% and 39.5780% and 46.2187% | Total Drug Released ([2]; 240 min): 13.0461 mg and 13.2489 mg and 13.0897 mg and 12.8881 mg
